Legend:
Human Jurkat-E6-1 cells = assay: Detection of IL-2 production by Jurkat cells using ELISA; format: cell-based; details: anti-CD3/anti-CD28 stimulation 24 hours, tested compound 1.0 μM, read-out: Percentage of the amount of IL-2 secreted by compound treated vs DMSO-treated cells
Procedure, shortened: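 Jurkat E6-1 cells were pre-incubated with compound for 30 min at 37 °C, then stimulated 24 h on plate-bound anti-CD3 plus soluble anti-CD28. Secreted IL-2 in supernatant was measured by sandwich ELISA (450 nm) against a standard curve and expressed as % of DMSO-treated cells.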

MV-4-11 cells = assay: Detection of MV-4-11 cell activity (CellTiter-Glo); format: cell-based; details: Homo sapiens, MV4-11, 120 h, 5 days, CTG, read-out: IC50, inhibitory effects on MV-4-11 cell activity
Experimental: The CellTiter-Glo (CTG) luminescence method was used to detect the effect of compounds on the activity of MV-4-11 cells.
Tested compounds: compound prepared in the Examples of the present invention.
Add 100 μL containing 20,000 MV-4-11 (human myeloid monocytic leukemia cells, from the Cell Bank of the Chinese Academy of Sciences, Cat. No. SCSP-5031) cell suspension to 96-well flat-bottom clear-bottomed cell plates (Corning, Cat #3603), and then add 100 μL of cell culture medium containing a series of concentrations of the compound to be tested, with a total volume of 200 μL per well. The final gradient concentrations of the compounds were 500 nM, 125 nM, 31.25 nM, 7.813 nM, 1.953 nM, 0.488 nM, 0.122 nM, 0.031 nM, and 0.008 nM, and the final DMSO content was 0.5%. Set cells with the cell culture medium containing 0.5% DMSO but without compounds as the 100% control; set the culture medium wells without cells as 0% background control. Incubate the cell plate in a humidified incubator at 37° C. and 5% CO2 for 5 days. After 5 days, take out the cell plate, centrifuge (1000 rpm) for 5 minutes, remove and discard 100 μL supernatant, add 100 μL CTG reagent (Promega, Cat #G7572) to each well, shake at room temperature for 10 minutes to promote cell lysis, and incubate at room temperature for 30 minutes to stabilize the luminescence signal. Use a microplate reader (Molecular Device, i3X) to read the Luminescent fluorescence value, use GraphPad Prism 5.0 software to analyze the original data, use nonlinear S-curve regression to fit the data to obtain the dose-effect curve (cell survival rate %), and calculate the IC50 value.

FLT3 = target: T1, FLT3 (Homo sapiens, UniProt P36888); assay: FLT3 kinase activity inhibition test (HTRF); format: biochemical; details: read-out: IC50, inhibitory effects on FLT3 kinase activity
T1 sequence (P36888 27-993): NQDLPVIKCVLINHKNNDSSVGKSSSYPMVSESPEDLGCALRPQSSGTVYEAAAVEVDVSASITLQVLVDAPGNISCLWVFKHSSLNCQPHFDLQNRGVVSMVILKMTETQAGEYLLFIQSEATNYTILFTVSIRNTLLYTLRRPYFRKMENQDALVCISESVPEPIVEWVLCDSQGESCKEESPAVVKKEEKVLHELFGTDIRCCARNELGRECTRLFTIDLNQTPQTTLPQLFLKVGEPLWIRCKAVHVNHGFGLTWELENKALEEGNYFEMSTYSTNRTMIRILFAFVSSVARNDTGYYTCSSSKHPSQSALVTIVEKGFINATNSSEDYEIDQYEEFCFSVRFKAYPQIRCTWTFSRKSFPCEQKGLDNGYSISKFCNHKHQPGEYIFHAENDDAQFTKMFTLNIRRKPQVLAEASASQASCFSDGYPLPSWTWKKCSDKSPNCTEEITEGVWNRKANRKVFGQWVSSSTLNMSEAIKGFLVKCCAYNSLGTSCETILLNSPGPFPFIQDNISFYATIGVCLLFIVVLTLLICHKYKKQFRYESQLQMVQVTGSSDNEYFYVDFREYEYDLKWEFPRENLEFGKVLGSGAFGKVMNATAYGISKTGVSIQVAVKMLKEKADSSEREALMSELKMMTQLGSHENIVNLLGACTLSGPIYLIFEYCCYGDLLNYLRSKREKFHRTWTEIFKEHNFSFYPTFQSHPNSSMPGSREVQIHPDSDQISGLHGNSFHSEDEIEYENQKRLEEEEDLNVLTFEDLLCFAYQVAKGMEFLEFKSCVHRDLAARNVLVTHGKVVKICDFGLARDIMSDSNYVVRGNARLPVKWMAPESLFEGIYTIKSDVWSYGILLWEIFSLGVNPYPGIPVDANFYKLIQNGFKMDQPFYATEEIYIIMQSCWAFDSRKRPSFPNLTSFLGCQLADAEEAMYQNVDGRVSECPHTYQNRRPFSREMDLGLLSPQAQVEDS
Experimental: Tested compounds: compounds prepared in the Examples of this invention.
Prepare compound stock solution: dissolve the test compound in 100% DMSO to make a 10 mM stock solution. Dilute the stock solution of the test compound by 5 times with 100% DMSO, make a 4-fold equal dilution in a 96-well dilution plate, add 1 μL of the compound to 39 μL of kinase reaction buffer (1×kinase buffer, 5 mM MgCl2, 1 mM DTT), and shake on a microplate shaker for 20 minutes. 4×Positive control (4 μL of positive compound solution of the starting concentration, add 196 μL of kinase buffer) and 4×negative control (4 μL of 100% DMSO, add 196 μL of kinase buffer).
(1) Use 1×kinase reaction buffer to prepare 2.5×FLT3 kinase solution (160 μM), transfer 2 μL of the kinase solution to the 384 reaction plate, and add 1 μL of the test compound solution of gradient concentration to the 384 reaction plate (Greiner, Cat #784075), centrifuge for 1 minute (1000 rpm), and incubate at 25° C. for 10 minutes.
(2) Use 1×kinase reaction buffer to prepare 2.5×TK-substrate-biotin (2.5 μM) and 2.5×ATP (2.5 μM), mix well, and add 2 μL of the TK-substrate-biotin/ATP solution to the 384 reaction plate, centrifuge for 30 seconds (1000 rpm), and incubate at 25° C. for 40 minutes.
(3) Use HTRF detection buffer to prepare 2×Sa-XL 665 (125 nM) and 1×TK-antibody-Cryptate. Add 5 μL of a mixture of Sa-XL 665 and TK-antibody-Cryptate solutions to each well, centrifuge for 30 seconds (1000 rpm), and react at room temperature for 1 hour.
(4) The fluorescence signal is read using a Biotek multi-function plate reader, and the IC50 (half inhibitory concentration) of the compound is obtained using a four-coefficient nonlinear fitting formula.

Row | Compound | activity at 1 µM (Human Jurkat-E6-1 cells) | IC50 (MV-4-11 cells) | IC50 (FLT3)
1 | CN1CCN(c2ccc3cc2OCCOCc2cccc(F)c2-c2cc4c-3n[nH]c4cn2)CC1 [Compound 9, 16-fluoro-5-(4-methylpiperazin-1-yl)-7,10-dioxa-19,22,23-triazapentacyclo[16.5.2.1^2,6.0^12,17.0^21,24]hexacosa-1(23),2(26),3,5,12,14,16,18,20,24-decaene] | 568% | 7 nM | ≤ 5 nM
2 | CN1CCN(c2ncc3cc2OCCCOc2cccc(F)c2-c2cc4c-3n[nH]c4cn2)CC1 [Compound 3, 16-fluoro-5-(4-methylpiperazin-1-yl)-7,11-dioxa-4,19,22,23-tetraazapentacyclo[16.5.2.1^2,6.0^12,17.0^21,24]hexacosa-1(23),2(26),3,5,12,14,16,18,20,24-decaene] | 823% | 32 nM | 5 to 50 nM
3 | CN1CCN(c2ccc3cc2OCCCOc2cccc(F)c2-c2cc4c-3n[nH]c4cn2)CC1 [Compound 6, 16-fluoro-5-(4-methylpiperazin-1-yl)-7,11-dioxa-19,22,23-triazapentacyclo[16.5.2.1^2,6.0^12,17.0^21,24]hexacosa-1(23),2(26),3,5,12,14,16,18,20,24-decaene] | 542% | 3.8 nM | ≤ 5 nM
